Experimental data taken from ChEMBL document CHEMBL1201862, “PubChem BioAssay data set” (2004).
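1) Cells in 96-well plates. 2) Compound, 48 h, 5 concentrations. 3) Linear interpolation between surrounding doses. 4) Unreached endpoint = highest concentration. The concentration for 50% growth inhibition is given as GI50.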 Activity calls are given as the source filed them. No stated cut-off is given here; in the data, active = GI50 up to about 1.1 µM and inactive = higher.

Key:
Assay in all cases: growth of human tumour cells (NCI), 48 h
[1] = test system: 786-0
[2] = test system: A498
[3] = test system: HCC 2998
[4] = test system: HCT-116
[5] = test system: HOP-92
[6] = test system: K562
[7] = test system: MDA-MB-435
[8] = test system: NCI-H460
[9] = test system: NCI/ADR-RES
[10] = test system: OVCAR-4
[11] = test system: OVCAR-5
[12] = test system: PC-3
[13] = test system: RXF 393
[14] = test system: SF-295
[15] = test system: SK-MEL-28
[16] = test system: SK-MEL-5
[17] = test system: SN12C
[18] = test system: T47D
[19] = test system: SR
[20] = test system: HL-60

SMILES	GI50 [1]	GI50 [2]	GI50 [3]	GI50 [4]	GI50 [5]	GI50 [6]	GI50 [7]	GI50 [8]	GI50 [9]	GI50 [10]	GI50 [11]	GI50 [12]	GI50 [13]	GI50 [14]	GI50 [15]	GI50 [16]	GI50 [17]	GI50 [18]	GI50 [19]	GI50 [20]
Clc1ccc(OCc2nnc(CCCCCCCCc3nnc(COc4ccc(Cl)cc4)n3Nc3ccccc3)n2Nc2ccccc2)cc1	15.3 µM (inactive)	62.5 µM (inactive)	12.2 µM (inactive)	4.44 µM (inactive)	21.4 µM (inactive)	0.343 µM (active)	2.22 µM (inactive)	2.71 µM (inactive)	3.84 µM (inactive)	15.7 µM (inactive)	2.74 µM (inactive)	1.44 µM (inactive)	21.8 µM (inactive)	0.145 µM (active)	4.62 µM (inactive)	0.463 µM (active)	18.2 µM (inactive)	22.1 µM (inactive)	–	–
CC[C@]1(Cc2ccc(OC)c(OC)c2)[C@@H]2C[C@@H](C3OCCO3)ON2O[C@H](OC2CCCC2(c2ccccc2)c2ccccc2)[C@@H]1OC(C)=O (stereo partly drawn)	20 µM (inactive)	–	–	17.4 µM (inactive)	–	17.7 µM (inactive)	21.5 µM (inactive)	16.1 µM (inactive)	28.9 µM (inactive)	–	17.9 µM (inactive)	24.4 µM (inactive)	–	21.2 µM (inactive)	20.5 µM (inactive)	18.5 µM (inactive)	31.3 µM (inactive)	18.7 µM (inactive)	16.1 µM (inactive)	–
C/C(=N\NC1=NCCN1)c1cn(C2=NCCN2)nc1C	> 100 µM (inactive)	> 100 µM (inactive)	> 100 µM (inactive)	> 100 µM (inactive)	97.1 µM (inactive)	59.6 µM (inactive)	> 100 µM (inactive)	> 100 µM (inactive)	> 100 µM (inactive)	> 100 µM (inactive)	> 100 µM (inactive)	> 100 µM (inactive)	72.1 µM (inactive)	> 100 µM (inactive)	> 100 µM (inactive)	> 100 µM (inactive)	> 100 µM (inactive)	> 100 µM (inactive)	–	–
CC(=O)CN/C(C)=N/Nc1ccc([N+](=O)[O-])cc1[N+](=O)[O-]	> 100 µM (inactive)	78.3 µM (inactive)	> 100 µM (inactive)	> 100 µM (inactive)	–	5.2 µM (inactive)	> 100 µM (inactive)	> 100 µM (inactive)	> 100 µM (inactive)	> 100 µM (inactive)	> 100 µM (inactive)	> 100 µM (inactive)	> 100 µM (inactive)	> 100 µM (inactive)	> 100 µM (inactive)	> 100 µM (inactive)	> 100 µM (inactive)	> 100 µM (inactive)	> 100 µM (inactive)	–
Nc1ccc(Nc2c3ccccc3nc3ccccc23)cc1	3.1 µM (inactive)	–	> 10 µM (inactive)	3.15 µM (inactive)	–	4.86 µM (inactive)	5.51 µM (inactive)	0.565 µM (active)	4.9 µM (inactive)	3.83 µM (inactive)	5.52 µM (inactive)	4.75 µM (inactive)	> 10 µM (inactive)	2.62 µM (inactive)	> 10 µM (inactive)	3.86 µM (inactive)	2.88 µM (inactive)	6.49 µM (inactive)	> 10 µM (inactive)	1.8 µM (inactive)
C=C(C)[C@H]1CC(=O)[C@@]2(C)C[C@H]3O[C@]3(C)CC/C=C(\C)CC[C@H]12	62.8 µM (inactive)	36.1 µM (inactive)	> 100 µM (inactive)	33.9 µM (inactive)	64.1 µM (inactive)	18 µM (inactive)	43.8 µM (inactive)	45.7 µM (inactive)	35.4 µM (inactive)	42.1 µM (inactive)	86.9 µM (inactive)	34.7 µM (inactive)	33.8 µM (inactive)	> 100 µM (inactive)	50.4 µM (inactive)	32.2 µM (inactive)	23.6 µM (inactive)	38.4 µM (inactive)	–	21.6 µM (inactive)
COc1cc2[nH]c(=O)[nH]c2c2c(C)c[nH]c12	> 100 µM (inactive)	> 100 µM (inactive)	> 100 µM (inactive)	> 100 µM (inactive)	–	> 100 µM (inactive)	> 100 µM (inactive)	> 100 µM (inactive)	> 100 µM (inactive)	> 100 µM (inactive)	> 100 µM (inactive)	> 100 µM (inactive)	> 100 µM (inactive)	> 100 µM (inactive)	> 100 µM (inactive)	> 100 µM (inactive)	> 100 µM (inactive)	> 100 µM (inactive)	> 100 µM (inactive)	> 100 µM (inactive)
COC(=O)/C=C(\S/C(=C(/c1ccc(OC)cc1)n1cc(C(=O)OC)c(C(=O)OC)n1)c1ccc(OC)cc1)C(=O)OC	5.36 µM (inactive)	> 100 µM (inactive)	–	9.98 µM (inactive)	–	6.5 µM (inactive)	16.7 µM (inactive)	35.9 µM (inactive)	28.7 µM (inactive)	19.4 µM (inactive)	27.1 µM (inactive)	26.6 µM (inactive)	12.6 µM (inactive)	> 100 µM (inactive)	3.08 µM (inactive)	35.5 µM (inactive)	15.5 µM (inactive)	3.02 µM (inactive)	2.77 µM (inactive)	2.7 µM (inactive)
O=C(O)CC1NC(/C(=C/c2ccccc2O)NC(=O)c2ccccc2)OC1=O (stereo not drawn)	30.3 µM (inactive)	> 75 µM (inactive)	> 40.4 µM (inactive)	45.9 µM (inactive)	28.7 µM (inactive)	> 100 µM (inactive)	9.29 µM (inactive)	> 58.7 µM (inactive)	19.5 µM (inactive)	7.59 µM (inactive)	> 100 µM (inactive)	49 µM (inactive)	29 µM (inactive)	26.6 µM (inactive)	> 100 µM (inactive)	> 73.5 µM (inactive)	48.8 µM (inactive)	11.7 µM (inactive)	–	> 43.9 µM (inactive)
COC(=O)C1(Cc2ccccc2)Cc2ccccc2C1	22.7 µM (inactive)	–	29.6 µM (inactive)	17.3 µM (inactive)	11.5 µM (inactive)	15.8 µM (inactive)	19.2 µM (inactive)	25.5 µM (inactive)	21.9 µM (inactive)	22.4 µM (inactive)	31.8 µM (inactive)	29.7 µM (inactive)	–	36.5 µM (inactive)	26.9 µM (inactive)	15.7 µM (inactive)	25.4 µM (inactive)	21.5 µM (inactive)	24.4 µM (inactive)	14.3 µM (inactive)
O=C(Sc1c(-c2ccccc2)c(=O)n(-c2ccccc2)c(=S)n1-c1ccccc1)c1cccs1	49.8 µM (inactive)	–	–	56.2 µM (inactive)	50 µM (inactive)	25.1 µM (inactive)	56.4 µM (inactive)	> 100 µM (inactive)	50.8 µM (inactive)	> 100 µM (inactive)	> 100 µM (inactive)	73.8 µM (inactive)	–	61 µM (inactive)	> 100 µM (inactive)	19.2 µM (inactive)	50.4 µM (inactive)	> 100 µM (inactive)	38.4 µM (inactive)	76 µM (inactive)
C/C1=C/C2OC(=O)C3(C)C2C(CC2(C)OC1=CC2=O)OC3(O)C(C)C (stereo not drawn)	26.1 µM (inactive)	73.8 µM (inactive)	20.9 µM (inactive)	> 61.1 µM (inactive)	–	32.7 µM (inactive)	38.3 µM (inactive)	42.5 µM (inactive)	59 µM (inactive)	25.1 µM (inactive)	34.8 µM (inactive)	40.8 µM (inactive)	> 37.4 µM (inactive)	29.4 µM (inactive)	40.5 µM (inactive)	23.6 µM (inactive)	31.4 µM (inactive)	58.2 µM (inactive)	22.6 µM (inactive)	18.7 µM (inactive)
COc1cc2c(cc1OC)[C@H](C)N1CCc3cc(OC)c(OC)cc3[C@@H]1C2	> 100 µM (inactive)	> 100 µM (inactive)	> 100 µM (inactive)	> 100 µM (inactive)	> 100 µM (inactive)	> 100 µM (inactive)	> 100 µM (inactive)	> 100 µM (inactive)	> 100 µM (inactive)	> 100 µM (inactive)	> 100 µM (inactive)	> 100 µM (inactive)	–	> 100 µM (inactive)	> 100 µM (inactive)	> 100 µM (inactive)	> 100 µM (inactive)	> 100 µM (inactive)	–	> 100 µM (inactive)
C[N+](C)(C)CCOP(=O)([O-])OCCNC(=O)c1ccc2ccccc2c1	> 100 µM (inactive)	–	> 100 µM (inactive)	> 100 µM (inactive)	–	> 100 µM (inactive)	> 100 µM (inactive)	–	31.5 µM (inactive)	–	> 100 µM (inactive)	> 100 µM (inactive)	> 100 µM (inactive)	> 100 µM (inactive)	> 100 µM (inactive)	> 100 µM (inactive)	> 100 µM (inactive)	> 100 µM (inactive)	> 100 µM (inactive)	> 100 µM (inactive)
O=C1Cc2c([nH]c3ccc([N+](=O)[O-])cc23)-c2ccccc2N1 [ALSTERPAULLONE]	0.406 µM (active)	0.822 µM (active)	0.914 µM (active)	0.116 µM (active)	7.93 µM (inactive)	0.774 µM (active)	0.499 µM (active)	0.396 µM (active)	0.61 µM (active)	0.498 µM (active)	0.22 µM (active)	0.836 µM (active)	0.284 µM (active)	0.92 µM (active)	0.345 µM (active)	0.174 µM (active)	0.391 µM (active)	2.88 µM (inactive)	–	0.261 µM (active)
